Experimental findings from patent US20230114241A1, “METHODS OF TREATING EPILEPSY USING THE SAME” (Trevena, Inc., priority 2019, published 2023) are described below.

Test [1] has as its target T1, human sphingosine-1-phosphate receptor 1 (S1P1) (Homo sapiens, UniProt P21453). The experiment in a line: Inhibition of cAMP production (HTRF cAMP HiRange), S1P1 CHO-K1 cells. Particulars: for Emax: CHO-K1, efficacy normalized to maximum efficacy of fingolimod, read-out: hS1P1 CAMP SPAN; for EC50: read-out: hS1P1 CAMP pEC50 (converted). It counts as cell-based. Put shortly:
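Intracellular cAMP changes read by TR-FRET (HTRF HiRange, 1 h room temperature) after 30 min compound exposure at 37 °C. Cells: overnight-plated CHO-K1 stably expressing tagged human S1P1 with EA-β-arrestin2. Responses normalized to fingolimod.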
For orientation: Changes in cAMP serve as a functional read-out for many G protein-coupled receptors.
Target sequence in this assay (P21453 whole entry): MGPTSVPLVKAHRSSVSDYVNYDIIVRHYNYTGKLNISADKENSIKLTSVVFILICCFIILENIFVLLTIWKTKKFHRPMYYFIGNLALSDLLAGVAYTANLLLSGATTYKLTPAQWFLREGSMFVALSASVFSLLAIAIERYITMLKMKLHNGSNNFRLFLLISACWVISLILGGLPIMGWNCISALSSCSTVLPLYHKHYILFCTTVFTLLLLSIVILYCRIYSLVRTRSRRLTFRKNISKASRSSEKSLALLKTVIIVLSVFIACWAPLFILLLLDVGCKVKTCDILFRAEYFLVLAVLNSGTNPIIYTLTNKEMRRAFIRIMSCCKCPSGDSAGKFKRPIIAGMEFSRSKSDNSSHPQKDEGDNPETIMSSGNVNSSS

Test [2] addresses T1, human sphingosine-1-phosphate receptor 1 (S1P1). The experiment in a line: β-Arrestin2 recruitment assay (PathHunter), S1P1 CHO-K1 cells. Format: cell-based. Particulars: for Emax: efficacy normalized to maximum efficacy of fingolimod, read-out: hS1P1 B-arrestin2 SPAN; for EC50: β-arrestin2 recruitment, read-out: hS1P1 B-arrestin2 pEC50 (converted). As to the method:
Stable clonal Chinese hamster ovary K1 (CHO-K1) cells co-expressing EA-β-arrestin2 and the human sphingosine-1-phosphate receptor 1 (NM_001400, S1P1) with a C-terminal Prolink™ tag were purchased from DiscoverX corporation (Cat #: 93-0207C2).
Cell lines were cultured in AssayComplete™ Media 6 (DiscoverX Corporation, Cat #: 920018GF2) at 37° C. and 5% CO2 in a humidified CO2 and temperature-controlled incubator. To begin assay plating, cells were washed with Dulbecco's phosphate buffered saline (CellGro, Cat #: 21-031-CV) and lifted from the culturing flask by incubation (37° C., 5 min) with CellStripper (Cellgro, Cat #: 25-056-CI). […] Plated cells were incubated overnight at 37° C. and 5% CO2 in a humidified CO2 and temperature-controlled incubator.
Agonist-promoted β-arrestin2 recruitment to the sphingosine-1-phosphate 1 receptor was determined using the β-arrestin PathHunter® Detection kit (DiscoverX Corporation, Cat #: 93-0001). […] In cells that stably express these fusion proteins, stimulation with a cognate agonist results in the interaction of β-arrestin2 and the Prolink™-tagged GPCR. This allows the complementation of the two β-galactosidase fragments and results in the formation of a functional enzyme with β-galactosidase activity. […] Following a 60 minute incubation at 37° C. and 5% CO2 in a humidified CO2 and temperature-controlled incubator, the components of the β-arrestin PathHunter® Detection kit were added as per the manufacturer's instructions. After an hour incubation at room temperature, plates were analyzed by a BMG PheraStar microplate reader.
These values are normalized to fingolimod, a known agonist of the sphingosine-1-phosphate 1 receptor.
Target sequence in this assay (P21453 whole entry): as above
Target sequence in this assay (P32121 whole entry partner): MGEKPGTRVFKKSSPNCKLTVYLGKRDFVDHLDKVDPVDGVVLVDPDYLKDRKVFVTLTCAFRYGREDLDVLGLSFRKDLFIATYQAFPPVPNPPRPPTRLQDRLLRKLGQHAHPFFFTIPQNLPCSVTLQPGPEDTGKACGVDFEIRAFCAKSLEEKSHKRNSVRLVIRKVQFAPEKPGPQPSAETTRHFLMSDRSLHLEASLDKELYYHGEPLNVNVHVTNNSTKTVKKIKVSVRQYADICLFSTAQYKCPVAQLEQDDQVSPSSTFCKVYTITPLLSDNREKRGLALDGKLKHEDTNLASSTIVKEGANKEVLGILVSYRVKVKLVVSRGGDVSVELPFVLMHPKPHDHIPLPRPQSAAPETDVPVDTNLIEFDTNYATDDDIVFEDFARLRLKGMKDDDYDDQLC
A general note: Activated receptors often draw arrestin, which recruitment assays turn into a signal.

Where [3] appears, read: inhibition of cAMP production, potency.
Where [4] appears, read: CHO-K1, β-arrestin2 recruitment.
Setting [5] is: inhibition of cAMP production, S1P1.

For `CC(C)n1nnc2cc(-c3nsc(-c4ccccc4O)n3)ccc21` [Compound 112, 2-{3-[1-(propan-2-yl)-1H-1,2,3-benzotriazol-5-yl]-1,2,4-thiadiazol-5-yl}phenol], the Emax in test [1] (inhibition of cAMP production) and in test [2] (setting [4]) was greater than 75% throughout. Further, the EC50 in test [1] (setting [3]) was less than 0.316 µM; in test [2] (potency), less than 10 µM.
As to `CCC1(CC)CC(=O)c2cc(-c3nc(-c4ccccc4OC)no3)ccc2O1` [Compound 268, 2,2-diethyl-6-[3-(2-methoxyphenyl)-1,2,4-oxadiazol-5-yl]chroman-4-one], the Emax in test [1] (inhibition of cAMP production) and in test [2] (setting [4]) was greater than 75% each time. For the same compound, the EC50 in test [1] (setting [3]) is less than 0.316 µM; in test [2] (potency), less than 10 µM.
In the case of `CCCC1(CCC)CC(=O)c2cc(-c3nc(-c4cccnc4)no3)ccc2O1` [Compound 218, 2,2-dipropyl-6-[3-(pyridin-3-yl)-1,2,4-oxadiazol-5-yl]-3,4-dihydro-2H-1-benzopyran-4-one], the Emax in test [1] (inhibition of cAMP production) and in test [2] (setting [4]) was greater than 75% in each case. The EC50 in test [1] (setting [3]) was greater than 0.316 µM; in test [2] (potency), greater than 10 µM.
On to `CC(C)Nc1ccc(-c2nnc(-c3ccc4ncn(C)c4c3)o2)cc1C#N` [Compound 579, 5-[5-(1-methyl-1H-1,3-benzodiazol-6-yl)-1,3,4-oxadiazol-2-yl]-2-[(propan-2-yl)amino]benzonitrile], for which the Emax in test [1] and in test [2] (CHO-K1) was greater than 75% each time. In addition, the figures for the EC50 in test [1] (setting [5]) and in test [2] (S1P1) were less than 0.316 µM and less than 10 µM, respectively.
Turning to `Cc1ccncc1-c1noc(-c2ccc3ccsc3n2)n1` [Compound 376, 4-methyl-3-(5-{thieno[2,3-b]pyridin-6-yl}-1,2,4-oxadiazol-3-yl)pyridine], the Emax in test [1] and in test [2] (CHO-K1) was less than 75% throughout. Also, the EC50 in test [1] (setting [5]) was greater than 0.316 µM; in test [2] (S1P1), greater than 10 µM.
For the compound `CCC1(CC)CC(=O)c2cc(-c3nc(-c4cccnc4C(F)(F)F)no3)ccc2O1` [Compound 562, 2,2-diethyl-6-(3-(2-(trifluoromethyl)pyridin-3-yl)-1,2,4-oxadiazol-5-yl)chroman-4-one], the Emax in test [1] and in test [2] (CHO-K1) was greater than 75% in each case. For the same compound, the EC50 in test [1] (setting [5]) was less than 0.316 µM; in test [2] (S1P1), less than 10 µM.
Consider `COCC1(COC)CC(=O)c2cc(-c3nc(-c4ccncc4)no3)ccc2O1` [Compound 494, 2,2-bis(methoxy-methyl)-6-[3-(pyridin-4-yl)-1,2,4-oxadiazol-5-yl]-3,4-dihydro-2H-1-benzopyran-4-one], for which the Emax in test [1] and in test [2] (CHO-K1) was less than 75% each time. Further, the EC50 in test [1] (setting [5]) is greater than 0.316 µM; in test [2] (S1P1), less than 10 µM.
Consider `CC(C)Nc1ccc(-c2nc(-c3ccc4c(c3)NC(=O)CC4)no2)cc1C#N` [Compound 435, 2-(isopropylamino)-5-(3-(2-oxo-1,2,3,4-tetrahydroquinolin-7-yl)-1,2,4-oxadiazol-5-yl)benzonitrile], for which the Emax in test [1] and in test [2] (CHO-K1) was greater than 75% throughout. In addition, the EC50 in test [1] (setting [5]) is less than 0.316 µM; in test [2] (S1P1), less than 10 µM.
For the compound `CC(C)n1ccc2cc(-c3nc(-c4ccccc4C(F)(F)F)cs3)cnc21` [Compound 408, 2-(1-isopropylpyrrolo[2,3-b]pyridin-5-yl)-4-[2-(trifluoromethyl)phenyl] thiazole], the Emax is greater than 75% in test [1] and less than 75% in test [2] (CHO-K1). Further, the EC50 was greater than 0.316 µM in test [1] (setting [5]) and greater than 10 µM in test [2] (S1P1).
The matching figures for `CCC1(CC)C/C(=N/O)c2cc(-c3nc(-c4cccnc4)no3)ccc2O1` [Compound 430, N-[(4Z)-2,2-diethyl-6-[3-(pyridin-3-yl)-1,2,4-oxadiazol-5-yl]-3,4-dihydro-2H-1-benzopyran-4-ylidene]hydroxylamine]: greater than 75%, greater than 75%, greater than 0.316 µM and greater than 10 µM.
`COc1ccc(-c2nsc(-c3ccc4[nH]ccc4c3)n2)cc1` [Compound 363, 5-[3-(4-methoxyphenyl)-1,2,4-thiadiazol-5-yl]-1H-indole]: the Emax in test [1] (inhibition of cAMP production) and in test [2] (setting [4]) was less than 75% each time. Moreover, the EC50 is greater than 0.316 µM in test [1] (setting [3]) and greater than 10 µM in test [2] (potency).
As to `CC(C)n1ccc2cc(-c3nsc(-c4ccccc4F)n3)ccc21` [Compound 380, 5-[5-(2-fluorophenyl)-1,2,4-thiadiazol-3-yl]-1-(propan-2-yl)-1H-indole], the Emax in test [1] and in test [2] (CHO-K1) was less than 75% throughout. Also, the EC50 was greater than 0.316 µM in test [1] (setting [5]) and greater than 10 µM in test [2] (S1P1).
In the case of `Cc1ccc(-c2nc(-c3ccc4c(c3)nnn4C3CCCC3)no2)cc1` [Compound 235, 3-(1-cyclopentyl-1H-benzo[d][1,2,3]triazol-5-yl)-5-(p-tolyl)-1,2,4-oxadiazole], the Emax in test [1] (inhibition of cAMP production) and in test [2] (setting [4]) was less than 75% in each case. In addition, the EC50 was greater than 0.316 µM in test [1] (setting [3]) and greater than 10 µM in test [2] (potency).
On to `Cc1ccccc1C(C)c1noc(-c2ccc3c(c2)nnn3CC(C)C)n1` (stereo not shown) [Compound 154, 5-{3-[1-(2-methyl-phenyl)ethyl]-1,2,4-oxadiazol-5-yl}-1-(2-methylpropyl)-1H-1,2,3-benzotriazole], for which the Emax in test [1] (inhibition of cAMP production) and in test [2] (setting [4]) was less than 75% throughout. Further, the EC50 in test [1] (setting [3]) was greater than 0.316 µM; in test [2] (potency), greater than 10 µM.
As to `CCC1(CC)CC(=O)c2cc(-c3nc(-c4cncc(F)c4)no3)ccc2O1` [Compound 551, 2,2-diethyl-6-(3-(5-fluoropyridin-3-yl)-1,2,4-oxadiazol-5-yl)chroman-4-one], the Emax is greater than 75% in test [1] and less than 75% in test [2] (CHO-K1). Besides, the EC50 in test [1] (setting [5]) was less than 0.316 µM; in test [2] (S1P1) it was less than 10 µM.
The like results for `CCC1(CC)CC(=O)c2cc(-c3nc(-c4ccc5ncoc5c4)no3)ccc2O1` [Compound 622, 6-(3-(benzo[d]oxazol-6-yl)-1,2,4-oxadiazol-5-yl)-2,2-diethyl-chroman-4-one] were, in that order, greater than 75%, less than 75%, less than 0.316 µM and greater than 10 µM.
In the case of `c1ccc(-c2noc(-c3ccc4[nH]nnc4c3)n2)cc1` [Compound 113, 5-(3-phenyl-1,2,4-oxadiazol-5-yl)-1H-1,2,3-benzotriazole], the Emax in test [1] (inhibition of cAMP production) and in test [2] (setting [4]) was less than 75% throughout. In addition, the figures for the EC50 in test [1] (setting [3]) and in test [2] (potency) were greater than 0.316 µM and greater than 10 µM, respectively.
For the compound `CC(C)(CO)n1nnc2cc(-c3noc(-c4ccccc4Cl)n3)ccc21` [Compound 618, 2-(5-(5-(2-chloro-phenyl)-1,2,4-oxadiazol-3-yl)-1H-benzo[d][1,2,3]triazol-1-yl)-2-methylpropan-1-ol], the Emax in test [1] and in test [2] (CHO-K1) was less than 75% throughout. In addition, the EC50 in test [1] (setting [5]) is greater than 0.316 µM; in test [2] (S1P1), less than 10 µM.
On to `CC(C)n1ccc2cc(-c3noc(-c4ccc(F)cc4)n3)ccc21` [Compound 400, 5-(4-fluorophenyl)-3-(1-isopropyl-1H-indol-5-yl)-1,2,4-oxadiazole], for which the Emax in test [1] and in test [2] (CHO-K1) was less than 75% each time. The EC50 is greater than 0.316 µM in test [1] (setting [5]) and greater than 10 µM in test [2] (S1P1).
Turning to `CCC1(CC)CC(=O)c2cc(-c3nsc(-c4ccccc4OC)n3)ccc2O1` [Compound 222, 2,2-diethyl-6-(5-(2-methoxyphenyl)-1,2,4-thiadiazol-3-yl)chroman-4-one], the Emax is greater than 75% in test [1] (inhibition of cAMP production) and less than 75% in test [2] (setting [4]). In addition, the EC50 was greater than 0.316 µM in test [1] (setting [3]) and less than 10 µM in test [2] (potency).
For `Cc1cn(C)nc1-c1noc(-c2ccc3c(c2)nnn3CC(C)(C)O)n1` [Compound 518, 1-{5-[3-(1,4-dimethyl-1H-pyrazol-3-yl)-1,2,4-oxadiazol-5-yl]-1H-1,2,3-benzotriazol-1-yl}-2-methylpropan-2-ol], the Emax in test [1] was greater than 75%; in test [2] (CHO-K1) it was less than 75%. The results for the EC50 in test [1] (setting [5]) and in test [2] (S1P1) were greater than 0.316 µM and greater than 10 µM, respectively.
With `CCC1(CC)CC(=O)c2cc(-c3nc(-c4ccc(C)s4)no3)ccc2O1` [Compound 34, 2,2-diethyl-6-(3-(5-methylthiophen-2-yl)-1,2,4-oxadiazol-5-yl)chroman-4-one], the Emax in test [1] (inhibition of cAMP production) was greater than 75%; in test [2] (setting [4]), less than 75%. Also, the EC50 was greater than 0.316 µM in test [1] (setting [3]) and less than 10 µM in test [2] (potency).
